Laboratory results from US20230067929A1, “HETEROCYCLIC DERIVATIVES, PHARMACEUTICAL COMPOSITIONS AND THEIR USE IN THE TREATMENT, AMELIORATION OR PREVENTION OF CANCER” (Tolremo Therapeutics AG, priority 2018, published 2023).

Columns and labels:
A375 cells = experiment: A375 cell immunofluorescence assay (with 1 μM S1152 and 0.5 μM S1008), EC50; assay type: cell-based; settings: 1 μM S1152 + 0.5 μM S1008, one day, ratio FL2/FL3 staining (sc-365823 antibody)
Method in brief: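 A375 cells were treated for 1 day with 1 μM S1152, 0.5 μM S1008 and compound dose ranges in DMEM/10% FCS/2 mM glutamine, then fixed, permeabilized and immunostained (secondary antibody 2 μg/ml). FL2 (500-530 nm) signal was measured in propidium iodide-defined objects (FL3, 565-600 nm). The normalized ln FL2/ln FL3 ratio was log-transformed, and EC50 came from a 4-parameter fit.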

TRIM33(PHD, Bromo.) = target: T1, TRIM33(PHD, Bromo.) (Homo sapiens, UniProt Q9UPN9); experiment: BromoKdMAX (BROMOscan) TRIM33(PHD, Bromo.); assay type: binding; settings: TRIM33(PHD, Bromo.) (Entrez TRIM33)
T1 construct: TRIM33(PHD, Bromo.)
T1 sequence (Q9UPN9 1-1127): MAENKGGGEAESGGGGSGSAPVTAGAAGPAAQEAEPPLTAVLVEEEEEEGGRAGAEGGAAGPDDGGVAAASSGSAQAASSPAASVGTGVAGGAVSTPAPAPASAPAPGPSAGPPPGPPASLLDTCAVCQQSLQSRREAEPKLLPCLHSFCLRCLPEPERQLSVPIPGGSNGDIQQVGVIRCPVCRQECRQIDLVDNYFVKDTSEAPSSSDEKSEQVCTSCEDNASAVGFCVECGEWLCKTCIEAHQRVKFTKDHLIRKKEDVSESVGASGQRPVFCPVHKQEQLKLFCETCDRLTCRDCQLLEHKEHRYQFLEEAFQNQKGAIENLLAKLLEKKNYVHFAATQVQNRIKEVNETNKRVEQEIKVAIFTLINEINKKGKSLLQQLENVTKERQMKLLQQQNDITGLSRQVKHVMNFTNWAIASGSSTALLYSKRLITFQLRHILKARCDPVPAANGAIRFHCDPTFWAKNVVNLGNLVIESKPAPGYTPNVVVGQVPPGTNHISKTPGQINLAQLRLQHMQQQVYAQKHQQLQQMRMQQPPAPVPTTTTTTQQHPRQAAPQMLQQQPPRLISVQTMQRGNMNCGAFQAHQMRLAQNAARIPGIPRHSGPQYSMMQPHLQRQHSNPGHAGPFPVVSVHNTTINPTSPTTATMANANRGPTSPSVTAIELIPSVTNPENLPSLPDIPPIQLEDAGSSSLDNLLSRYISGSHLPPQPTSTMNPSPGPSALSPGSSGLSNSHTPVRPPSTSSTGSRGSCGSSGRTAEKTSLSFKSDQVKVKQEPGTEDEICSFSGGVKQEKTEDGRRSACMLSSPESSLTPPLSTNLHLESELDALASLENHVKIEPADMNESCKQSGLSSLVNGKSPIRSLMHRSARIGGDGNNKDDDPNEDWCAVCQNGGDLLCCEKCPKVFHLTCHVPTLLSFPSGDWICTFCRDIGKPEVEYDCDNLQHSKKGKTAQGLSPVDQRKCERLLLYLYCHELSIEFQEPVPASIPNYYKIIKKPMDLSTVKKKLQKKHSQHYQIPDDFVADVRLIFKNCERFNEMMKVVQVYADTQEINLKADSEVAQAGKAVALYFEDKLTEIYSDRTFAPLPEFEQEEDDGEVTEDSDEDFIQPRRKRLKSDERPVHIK
Procedure: A BromoKdMAX was performed at DiscoverX.
BROMOscan™ is a novel industry leading platform for identifying small molecule bromodomain inhibitors. Based on proven KINOMEscan™ technology, BROMOscan™ employs a proprietary ligand binding site-directed competition assay to quantitatively measure interactions between test compounds and bromodomains. This robust and reliable assay panel is suitable for high throughput screening and delivers quantitative ligand binding data to facilitate the identification and optimization of potent and selective small molecule bromodomain inhibitors.
For the Bromodomain assays, T7 phage strains displaying bromodomains were grown in parallel in 24-well blocks in an E. coli host derived from the BL21 strain. E. coli were grown to log-phase and infected with T7 phage from a frozen stock (multiplicity of infection=0.4) and incubated with shaking at 32° C. until lysis (90-150 minutes). The lysates were centrifuged (5,000×g) and filtered (0.2 μm) to remove cell debris. […] The liganded beads were blocked with excess biotin and washed with blocking buffer (SeaBlock (Pierce), 1% BSA, 0.05% Tween 20, 1 mM DTT) to remove unbound ligand and to reduce non-specific phage binding. […] Kds were determined using an 11-point 3-fold compound dilution series with one DMSO control point. […] The bromodomain concentration in the eluates was measured by qPCR.

Row | SMILES | EC50 (A375 cells) [µM] | Kd (TRIM33(PHD, Bromo.)) [µM]
1 | CCC(=O)N1CCCC(c2nc(Nc3cccc(F)c3)cc(-c3ccncc3)n2)C1 (stereo not drawn) | > 10 | –
2 | CCC(=O)N1CCCC(c2nc(Nc3cccc(F)c3)cc(-c3cncc(F)c3)n2)C1 (stereo not drawn) | > 10 | –
3 | CCC(=O)N1CCCC(c2nc(Nc3cccc(F)c3)cc(-c3ccc(C(=O)NC)nc3)n2)C1 (stereo not drawn) | > 10 | –
4 | CCC(=O)N1CCCC(c2nc(Nc3cccc(F)c3)cc(-c3cccc(C(=O)NC)c3)n2)C1 (stereo not drawn) | > 10 | –
5 | CCC(=O)N1CCCC(c2nc(Nc3cccc(F)c3)cc(-c3ccccc3NC(C)=O)n2)C1 (stereo not drawn) | > 10 | –
6 | CCC(=O)N1CCCC(c2nc(Nc3cccc(F)c3)cc(-c3ccccc3OC)n2)C1 (stereo not drawn) | > 10 | –
7 | CCC(=O)N1CCCC(c2nc(Nc3cccc(F)c3)cc(-c3cn(C)nc3C)n2)C1 (stereo not drawn) | > 10 | –
8 | CCC(=O)N1CCCC(c2nc(Nc3cccc(F)c3)cc(-c3cncc4[nH]ccc34)n2)C1 (stereo not drawn) | > 10 | –
9 | CCC(=O)N1CCCC(c2nc(Nc3cccc(F)c3)cc(-c3cnn(C4CCC4)c3)n2)C1 (stereo not drawn) | > 10 | –
10 | CC(=O)N1CCCC(c2nc(Nc3cccnn3)cc(-c3cccnc3)n2)C1 (stereo not drawn) | > 10 | –
11 | CC(=O)N1CCCC(c2nc(Nc3ccnnc3)cc(-c3cccnc3)n2)C1 (stereo not drawn) | > 10 | –
12 | CC(=O)N1CCCC(c2nc(Nc3cnccn3)cc(-c3cccnc3)n2)C1 (stereo not drawn) | > 10 | –
13 | CC(=O)N1CCCC(c2nc(NC3CCCCC3)cc(-c3cccnc3)n2)C1 (stereo not drawn) | > 10 | –
14 | CC(=O)N1CCCC(c2nc(NC3CCCC3)cc(-c3cccnc3)n2)C1 (stereo not drawn) | > 10 | –
15 | CC(=O)N1CCCC(c2nc(NC34CC(C3)C4)cc(-c3cccnc3)n2)C1 (stereo not drawn) | > 10 | –
16 | CC(=O)N1CCCC(c2nc(NC34CC(C3)C4)cc(-c3cncnc3)n2)C1 (stereo not drawn) | > 10 | –
17 | CC(=O)N1CCCC(c2nc(Nc3cccc(F)c3)cc(N3CCOCC3)n2)C1 (stereo not drawn) | > 10 | –
18 | CC(=O)N1CCCC(c2nc(Nc3cccc(F)c3)cc(-c3cncc(N4CCNCC4)c3)n2)C1 (stereo not drawn) | > 10 | –
19 | COc1cncc(-c2cc(Nc3cccc(F)c3)nc([C@@H]3CC[C@H](C)N(C(C)=O)C3)n2)c1 [Compound 00212, (−)-1-((2S,5R)-5-(4-((3-fluorophenyl)amino)-6-(5-methoxypyridin-3-yl)pyrimidin-2-yl)-2-methylpiperidin-1-yl)ethan-1-one] | – | > 10
20 | CC(=O)N1CC(c2cc(Nc3cccc(F)c3)cc(-c3cccnc3)n2)CCC1C (stereo not drawn) [drawing 689] | > 10 | –
21 | CC(=O)N1CC(F)CC(c2nc(Nc3cccc(F)c3)cc(-c3cccnc3)n2)C1 (stereo not drawn) [drawing 702] | 1 to 10 | –
22 | CC(=O)N1CC(F)CC(c2nc(Nc3cccc(F)c3)cc(-c3cccnc3)n2)C1 (stereo not drawn) [drawing 703] | 1 to 10 | –
23 | CC(=O)N1CCC(C)C(c2nc(Nc3cccc(F)c3)cc(-c3cccnc3)n2)C1 (stereo not drawn) [drawing 719] | 1 to 10 | –
24 | CC(=O)N1CCC(C)C(c2nc(Nc3cccc(F)c3)cc(-c3cccnc3)n2)C1 (stereo not drawn) [drawing 720] | 1 to 10 | –

The next lines start with results.

Row | EC50 (A375 cells) [µM] | SMILES | Kd (TRIM33(PHD, Bromo.)) [µM]
25 | 1 to 10 | CCC(=O)N1CCCC(c2nc(Nc3cccc(F)c3)cc(-c3ccc(OC)cc3)n2)C1 (stereo not drawn) | –
26 | 1 to 10 | CCC(=O)N1CCCC(c2nc(Nc3cccc(F)c3)cc(-c3ccc(C(=O)NC)cc3)n2)C1 (stereo not drawn) | –
27 | 1 to 10 | CCC(=O)N1CCCC(c2nc(Nc3cccc(F)c3)cc(-c3cccc(NC(C)=O)c3)n2)C1 (stereo not drawn) | –
28 | 1 to 10 | CCC(=O)N1CCCC(c2nc(Nc3cccc(F)c3)cc(-c3cncc(C(=O)NC)c3)n2)C1 (stereo not drawn) | –
29 | 1 to 10 | CCC(=O)N1CCCC(c2nc(Nc3cccc(F)c3)cc(-c3cnccc3OC)n2)C1 (stereo not drawn) | –
30 | 1 to 10 | CCC(=O)N1CCCC(c2nc(Nc3cccc(F)c3)cc(-c3ccc(NC(C)=O)cc3)n2)C1 (stereo not drawn) | –
31 | 1 to 10 | CCC(=O)N1CCCC(c2nc(Nc3cccc(F)c3)cc(-c3sc(C(C)C)nc3C)n2)C1 (stereo not drawn) | –
32 | 1 to 10 | CCC(=O)N1CCCC(c2nc(Nc3cccc(F)c3)cc(-c3csc4cnccc34)n2)C1 (stereo not drawn) | –
33 | 1 to 10 | CCC(=O)N1CCCC(c2nc(Nc3cccc(F)c3)cc(-c3cnn(CC(F)(F)F)c3)n2)C1 (stereo not drawn) | –
34 | 1 to 10 | CCC(=O)N1CCCC(c2nc(Nc3cccc(F)c3)cc(-c3ccc4scnc4c3)n2)C1 (stereo not drawn) | –
35 | 1 to 10 | CCC(=O)N1CCCC(c2nc(Nc3cccc(F)c3)cc(-c3cccc(-c4nnc(C)o4)c3)n2)C1 (stereo not drawn) | –
36 | 1 to 10 | CCC(=O)N1CCCC(c2nc(Nc3cccc(F)c3)cc(-c3cccc(C#N)c3)n2)C1 (stereo not drawn) | –
37 | < 1 | CC(=O)N1C[C@H](c2nc(Nc3cncc(C)c3)cc(-c3cncc(C4COC4)c3)n2)CC[C@@H]1C | –
38 | 1 to 10 | CC(=O)N1CCCC(c2nc(Nc3cncc(F)c3)cc(-c3cccnc3)n2)C1 (stereo not drawn) | –
39 | 1 to 10 | CC(=O)N1CCCC(c2nc(Nc3ccnc(C)c3)cc(-c3cccnc3)n2)C1 (stereo not drawn) | –
40 | < 1 | CC(=O)N1C[C@H](c2nc(Nc3ccncc3)cc(-c3cccnc3)n2)CC[C@@H]1C | –
41 | < 1 | CC(=O)N1C[C@H](c2nc(Nc3cccnc3)cc(-c3cccnc3)n2)CC[C@@H]1C | –
42 | 1 to 10 | CC(=O)N1CCCC(c2nc(NC34CC(C3)C4)cc(-c3cncc4[nH]ccc34)n2)C1 (stereo not drawn) | –
43 | 1 to 10 | CC(=O)N1C[C@H](c2nc(Nc3cccc(C)c3)cc(-c3cncc4[nH]ncc34)n2)CC[C@@H]1C | –
44 | < 1 | CC(=O)N1CCCC(c2nc(Nc3cccc(C)c3)cc(-c3cncc4[nH]ncc34)n2)C1 (stereo not drawn) | –
45 | 1 to 10 | CC(=O)N1CCN(c2cncc(-c3cc(Nc4cccc(F)c4)nc(C4CCCN(C(C)=O)C4)n3)c2)CC1 (stereo not drawn) | –
46 | < 1 | CC(=O)N1CCCC(c2nc(Nc3cccc(F)c3)cc(-c3cncc4[nH]ccc34)n2)C1 (stereo not drawn) [drawing 556] | –
47 | 1 to 10 | CC(=O)N1CCCC(c2nc(Nc3cccc(F)c3)cc(-c3cncc4[nH]ccc34)n2)C1 (stereo not drawn) [drawing 575] | –
48 | 1 to 10 | CC(=O)N1CC(c2cc(Nc3cccc(F)c3)cc(-c3cccnc3)n2)CCC1C (stereo not drawn) [drawing 690] | –
